Consider two compounds from article PMC8396575, ““Molecular Masks” for ACE2 to Effectively and Safely Block SARS-CoV-2 Virus Entry” (International Journal of Molecular Sciences, 2021).

For data set [1], the target named is T1, recombinant human angiotensin-converting enzyme 2 (ACE2) (His-tag) (Homo sapiens, UniProt Q9BYF1).
T1 construct: purchased RayBiotech 230-30165-100
The experiment in a line: ELISA-like quantitative ACE2-peptoid binding assay. The protocol:
We first validated the OBTC screening results by resynthesizing ACE2P1 and ACE2P2 on tentagel beads and incubated them with red cells (ACE2 positive) and green cells (ACE2 negative) separately as well as 1:1 mixture of these cells. […] Next, we incubated recombinant ACE2 protein with the ACE2P1 or ACE2P2 conjugated tentagel beads and performed in vitro pull-down assay. […] To confirm a direct interaction between the peptoids and ACE2, we performed a thermal shift assay using recombinant ACE2 protein. The Applied Biosystems™ Protein Thermal Shift™ assay measures protein thermal stability using a fluorescent protein-binding dye. […] The protein is mixed with the dye and heated; as it unfolds or melts, hydrophobic parts of the protein are exposed and bind to the dye, resulting in fluorescence emission detected by the qPCR system. Binding of a ligand to the protein changes the stability of the protein, resulting in a change in fluorescence intensity. […] Finally, we performed a previously published ELISA-like quantitative binding assay to quantify the peptoid-ACE2 binding event. The recombinant His-tagged ACE2 protein was attached to the Nickel-coated 96-well plate. […] After washing, the remaining compounds were probed with streptavidin-HRP system followed by detecting luminescence signals using a spectrophotometer. […]
Background: ELISA stands for enzyme-linked immunosorbent assay.

Data set [2] has as its system ACE2 activity in Caco-2 cells. The experiment in a line: ACE2 enzyme activity in Caco-2 cells. The data set is classed as cell-based, human. As to conditions: 40 µg cell lysate, cOmplete protease inhibitor 40 µL/mL, 10 µM captopril; fluorescence; n = 3/group. The protocol: ACE2 is an enzyme which lowers blood pressure by catalyzing the hydrolysis of angiotensin II [49]. […] To determine if ACE2P1D1 and ACE2P2D1 interfere with the normal functions of ACE2, we examined the effects of the peptoids on ACE2 enzyme activity. ACE2 enzyme activity was measured by fluorescence generated from the cleavage of the substrate Mca-YVADAPK(Dnp) by ACE2. […] We then examined the effects of ACE2P1D1 and ACE2P2D1 on ACE2 activity in cultured cells. For measuring ACE2 activity in cells, cell homogenates were used. To prevent hydrolysis of the substrate by a range of nonmetalloprotease enzymes from the cells, cOmplete™ Protease Inhibitor Cocktail (Roche/Sigma—40 µL/mL) was added to the cell homogenates. To eliminate the effects of ACE on the substrate, ACE inhibitor captopril (10 µM) was added to the assay.
ACE2 enzyme activity was determined using recombinant ACE2 protein (R&D system Inc., Cat# 933-ZN-010, Minneapolis, MN, USA) alone or in the presence of ACE2P1D1 and ACE2P2D1 in different concentrations (0.1 µM, 1 µM, and 10 µM), and Mc[…] (Dnp)-OH, Fluorogenic Peptide Substrate VI from R&D System, Inc. (Cat# ES007, Minneapolis, MN, USA). […] ACE2 enzyme activity was measured every 20 min by fluorescence plate reader (BioTek Cytation 5 cell Imaging Multi-Mode Reader, Winooski, VT, USA) with excitation at 320 nm and emission at 405 nm.

In data set [3] the test system is ACE2 cell surface expression in Caco-2 cells. The experiment in a line: Flow cytometry, ACE2 cell surface expression, Caco-2. The data set is classed as cell-based, human. As to conditions: 10 µM, 48 h. The procedure: To evaluate the impact of compounds to ACE2 upon binding in cell lines, MCF-7, NCI-H1299, and Caco-2 cell cultures reaching 70% confluences were incubated with 10 μM ACE2P1D1 and ACE2P2D1 for 48 h and then harvested using trypsin. Briefly, cells were centrifuged and washed with FACS buffer and then fixed by methanol on ice. Cells were suspended with a primary antibody-staining mixture using 0.5 μg (Human/Mouse/Rat/Hamster ACE-2 Antibody, R&D Systems, Inc., Cat# AF933, Minneapolis, MN, USA) per sample. Samples were incubated at room temperature for 1 h followed by washing and secondary antibody (mouse anti-goat IgG-FITC, Santa Cruz, Cat# sc-2356, Dallas, TX, USA) staining. Samples were incubated for another hour and washed before being analyzed using Accuri™ C6 (BD Biosciences, Franklin Lakes, NJ, USA). Data analysis was conducted by FlowJo™ v10 software (v10.5.2, FlowJo. LLC, Ashland, OR, USA).

In data set [4] the test system is total ACE2 protein in Caco-2 cells. The experiment in a line: Western blot, total ACE2, Caco-2. As to conditions: various concentrations, 48 h. The data set is classed as cell-based, human. The protocol:
Cells were lysed in RIPA buffer (1% NP-40, 0.5% sodium deoxycholate, 0.1% SDS in PBS). Complete protease inhibitor cocktail (Roche, St. Louis, MO, USA) was added to lysis buffer before use. Protein concentration was determined by Bio-Rad DC protein assay (Bio-Rad, Hercules, CA, USA). Protein samples were subjected to SDS-PAGE and transferred to nitrocellulose membrane. The membrane was blocked in 5% non-fat milk in PBST overnight and incubated with primary antibody and subsequently with appropriate horse radish peroxidase-conjugated secondary antibody. Signals of targeted proteins were detected by the Immun-Star HRP peroxide Luminol/Enhancer (Bio-Rad, Hercules, CA, USA) and recorded on ChemiDoc Touch Imaging System (Bio-Rad, Hercules, CA, USA). Anti-hACE2 (human ACE2 receptor) antibody was purchased from R&D system, Inc. (Cat# AF933, Minneapolis, MN, USA). Full western blot data are given in Supplementary Material (Figures S14–S16).
(In general: A western blot detects proteins with antibodies after separation by electrophoresis.)

A further data set has as its system NCI-H1299 cells. The experiment in a line: WST-1 cell viability assay, NCI-H1299. Particulars: WST-1, 48 h, concentrations tested up to 20 µM; n = 3–5/group. Format: cell-based, human. The text has this: (§1) We assessed whether ACE2P1D1 and ACE2P2D1 are toxic to the cells. We seeded and treated increasing concentrations of ACE2P1D1 and ACE2P2D1 on NCI-H1299, Caco-2, and MCF-7 cells. The standard WST-1 assay was used to measure the cell viability. As shown in Figure 5c–e, treatment with both compounds had no effects on cell viability in NCI-H1299, MCF-7, and Caco-2 cells.

A further data set has as its system Caco-2 cells. The experiment in a line: WST-1 cell viability assay, Caco-2. As to conditions: WST-1, 48 h, concentrations tested up to 20 µM; n = 3–5/group. Format: cell-based, human.
Source text: as §1
On the technique in general: Tetrazolium dyes change colour on reduction, which living cells bring about.

A further data set has as its system MCF-7 cells. The experiment in a line: WST-1 cell viability assay, MCF-7. The data set is classed as cell-based, human. Particulars: WST-1, 48 h, concentrations tested up to 20 µM; n = 3–5/group.
Source text: as §1

Bridge positions count the residues as written; N and C are the ends. Square brackets hold non-standard residues; d marks the D form. Peptide text beside a SMILES is read from it. I, II: the chains in the order shown. N(4-MeOBn)Gly = COc1ccc(CNCC(=O)O)cc1; N((CH2)3OiPr)Gly = CC(C)OCCCNCC(=O)O; Nrpe = C[C@@H](NCC(=O)O)c1ccccc1; NAllylGly = C=CCNCC(=O)O; Nleu = CC(C)CNCC(=O)O; Nme = COCCNCC(=O)O

The term Kd denotes a measure of binding affinity in units of concentration.

T1 sequence (Q9BYF1 18-805): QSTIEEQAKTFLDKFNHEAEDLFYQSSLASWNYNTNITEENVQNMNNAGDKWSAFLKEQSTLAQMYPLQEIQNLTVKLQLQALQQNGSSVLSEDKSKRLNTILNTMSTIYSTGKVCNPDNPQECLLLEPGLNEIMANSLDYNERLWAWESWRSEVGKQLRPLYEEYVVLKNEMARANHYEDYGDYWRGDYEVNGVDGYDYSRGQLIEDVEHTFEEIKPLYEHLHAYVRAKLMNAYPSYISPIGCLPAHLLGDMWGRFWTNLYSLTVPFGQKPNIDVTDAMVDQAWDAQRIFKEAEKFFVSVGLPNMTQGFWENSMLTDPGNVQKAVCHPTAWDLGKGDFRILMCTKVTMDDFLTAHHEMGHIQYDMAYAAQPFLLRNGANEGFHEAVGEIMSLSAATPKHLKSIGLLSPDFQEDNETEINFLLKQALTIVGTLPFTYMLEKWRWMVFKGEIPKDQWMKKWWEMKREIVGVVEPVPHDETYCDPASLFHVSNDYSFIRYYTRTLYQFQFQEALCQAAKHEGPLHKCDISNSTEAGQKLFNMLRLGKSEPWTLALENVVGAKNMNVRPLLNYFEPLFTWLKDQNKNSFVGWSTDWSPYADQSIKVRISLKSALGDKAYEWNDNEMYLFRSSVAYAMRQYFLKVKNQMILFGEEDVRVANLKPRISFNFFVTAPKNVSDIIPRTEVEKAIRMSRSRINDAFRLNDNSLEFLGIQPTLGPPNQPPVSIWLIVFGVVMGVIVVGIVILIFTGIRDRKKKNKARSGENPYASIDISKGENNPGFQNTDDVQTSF

Turning to `C=CCN(CC(=O)N(CC(=O)N[C@@H](CCCCN)C(=O)N[C@@H](CCSC)C(=O)NCCCC[C@H](NC(=O)[C@H](CCSC)NC(=O)[C@H](CCCCN)NC(=O)CN(C(=O)CN(CC=C)C(=O)CN(Cc1ccc(OC)cc1)C(=O)CN(C(=O)CN(CCOC)C(=O)CNCC(C)C)[C@H](C)c1ccccc1)[C@H](C)c1ccccc1)C(N)=O)[C@H](C)c1ccccc1)C(=O)CN(Cc1ccc(OC)cc1)C(=O)CN(C(=O)CN(CCOC)C(=O)CNCC(C)C)[C@H](C)c1ccccc1` [ACE2P1D1] (I: H-[Nleu][Nme][Nrpe][N(4-MeOBn)Gly][NAllylGly][Nrpe]KMK-NH2 / II: H-[Nleu][Nme][Nrpe][N(4-MeOBn)Gly][NAllylGly][Nrpe]KM; amide I:9-II:C), the Kd in data set [1] came to 60 nM. For the same compound, the “effect on ACE2 activity in cultured Caco-2 cells” value in data set [2] was “had no effects on ACE2 activity”. Moreover, the “cell surface expression of ACE2, Caco-2” value in data set [3] is “did not decrease the cell surface expression of ACE2”. In addition, the “total ACE2 protein level, Caco-2” value in data set [4] was “total ACE2 protein levels did not change”. Besides, the “effect on cell viability, NCI-H1299” value in the data set with NCI-H1299 cells is “had no effect on the cell viability”. The “effect on cell viability, Caco-2” value in the data set on Caco-2 cells is given as “had no effect on the cell viability”. For the same compound, the “effect on cell viability, MCF-7” value with MCF-7 cells is “had no effect on the cell viability”.
With `COCCN(CC(=O)N[C@@H](CCCCN)C(=O)N[C@@H](CCSC)C(=O)NCCCC[C@H](NC(=O)[C@H](CCSC)NC(=O)[C@H](CCCCN)NC(=O)CN(CCOC)C(=O)CN(CC(C)C)C(=O)CN(CC(C)C)C(=O)CN(CCCOC(C)C)C(=O)CN(Cc1ccc(OC)cc1)C(=O)CNCc1ccc(OC)cc1)C(N)=O)C(=O)CN(CC(C)C)C(=O)CN(CC(C)C)C(=O)CN(CCCOC(C)C)C(=O)CN(Cc1ccc(OC)cc1)C(=O)CNCc1ccc(OC)cc1` [ACE2P2D1] (I: H-[N(4-MeOBn)Gly][N(4-MeOBn)Gly][N((CH2)3OiPr)Gly][Nleu][Nleu][Nme]KMK-NH2 / II: H-[N(4-MeOBn)Gly][N(4-MeOBn)Gly][N((CH2)3OiPr)Gly][Nleu][Nleu][Nme]KM; amide I:9-II:C), the Kd in data set [1] was 110 nM. In addition, the “effect on ACE2 activity in cultured Caco-2 cells” value in data set [2] is “had no effects on ACE2 activity”. In addition, the “cell surface expression of ACE2, Caco-2” value in data set [3] was “did not decrease the cell surface expression of ACE2”. Moreover, in data set [4], the “total ACE2 protein level, Caco-2” value is on record as “total ACE2 protein levels did not change”. Moreover, in the data set on NCI-H1299 cells, the “effect on cell viability, NCI-H1299” value is “had no effect on the cell viability”. Also, the “effect on cell viability, Caco-2” value with Caco-2 cells is recorded as “had no effect on the cell viability”. Also, the “effect on cell viability, MCF-7” value with MCF-7 cells was “had no effect on the cell viability”.
